Test results reported in the supplement of paper PMC12463676, “Small-molecule dissolution of stress granules by redox modulation benefits ALS models” (Nature Chemical Biology, 2025).

Experiments:
potassium arsenate = compound: O=[As]([O-])(O)O.[K+] [potassium arsenate]; test: thermal stability z-score vs DMSO; higher = more thermally stabilized by treatment; conditions: HeLa; arsenate concentration 1 mM
Experimental: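 Cellular thermal proteome profiling in HeLa cells treated with 1 mM arsenate for 1 h (DMSO pretreatment), heated to ten temperatures (37-66.3 °C). Soluble protein was quantified by TMT mass spectrometry relative to DMSO controls; the thermal stability score was transformed to a z-score; mean of n = 3 experiments.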

lipoamide = compound: NC(=O)CCCCC1CCSS1 [lipoamide]; test: as above; conditions: HeLa, lipoamide concentration 100 µM
Experimental: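 Cellular thermal proteome profiling in HeLa cells. Cells were treated with 100 µM lipoamide for 1 h, with or without 1 mM arsenate for a further 1 h, then heated to ten temperatures (37-66.3 °C), and soluble protein was quantified by TMT mass spectrometry relative to 0.1% DMSO controls. The thermal stability score (sum of log2 fold changes minus the abundance score) was transformed to a z-score; mean of n = 3 experiments.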

[1] = arsenate co-treatment: 1 mM arsenate 1 h
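Note: each temperature applied for 3 min, abundance score taken as mean log2 fold change at the two lowest temperatures, z-score obtained by mean subtraction and division by SD.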

Chain of UniProt O43766 (O43766 whole entry): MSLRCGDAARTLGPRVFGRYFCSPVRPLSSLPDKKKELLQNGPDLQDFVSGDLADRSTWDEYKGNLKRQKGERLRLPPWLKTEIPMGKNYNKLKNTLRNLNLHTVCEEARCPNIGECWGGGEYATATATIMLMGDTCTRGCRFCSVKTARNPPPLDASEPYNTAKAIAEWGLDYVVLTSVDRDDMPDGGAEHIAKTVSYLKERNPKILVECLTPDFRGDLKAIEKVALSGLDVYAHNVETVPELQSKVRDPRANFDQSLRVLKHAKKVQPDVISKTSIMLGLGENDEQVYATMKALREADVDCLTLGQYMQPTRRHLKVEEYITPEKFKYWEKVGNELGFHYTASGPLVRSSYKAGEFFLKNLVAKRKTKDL
Chain of UniProt Q8WVY7 (Q8WVY7 whole entry): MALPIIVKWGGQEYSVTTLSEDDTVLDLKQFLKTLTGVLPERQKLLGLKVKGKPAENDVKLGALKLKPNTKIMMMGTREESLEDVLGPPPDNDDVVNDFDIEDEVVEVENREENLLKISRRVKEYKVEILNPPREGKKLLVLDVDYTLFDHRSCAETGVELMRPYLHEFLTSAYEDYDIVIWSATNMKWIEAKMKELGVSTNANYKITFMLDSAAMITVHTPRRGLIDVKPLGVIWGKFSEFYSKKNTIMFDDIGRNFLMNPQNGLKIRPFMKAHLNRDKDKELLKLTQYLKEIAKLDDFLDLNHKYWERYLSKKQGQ
Chain of UniProt Q6NUQ1 (Q6NUQ1 whole entry): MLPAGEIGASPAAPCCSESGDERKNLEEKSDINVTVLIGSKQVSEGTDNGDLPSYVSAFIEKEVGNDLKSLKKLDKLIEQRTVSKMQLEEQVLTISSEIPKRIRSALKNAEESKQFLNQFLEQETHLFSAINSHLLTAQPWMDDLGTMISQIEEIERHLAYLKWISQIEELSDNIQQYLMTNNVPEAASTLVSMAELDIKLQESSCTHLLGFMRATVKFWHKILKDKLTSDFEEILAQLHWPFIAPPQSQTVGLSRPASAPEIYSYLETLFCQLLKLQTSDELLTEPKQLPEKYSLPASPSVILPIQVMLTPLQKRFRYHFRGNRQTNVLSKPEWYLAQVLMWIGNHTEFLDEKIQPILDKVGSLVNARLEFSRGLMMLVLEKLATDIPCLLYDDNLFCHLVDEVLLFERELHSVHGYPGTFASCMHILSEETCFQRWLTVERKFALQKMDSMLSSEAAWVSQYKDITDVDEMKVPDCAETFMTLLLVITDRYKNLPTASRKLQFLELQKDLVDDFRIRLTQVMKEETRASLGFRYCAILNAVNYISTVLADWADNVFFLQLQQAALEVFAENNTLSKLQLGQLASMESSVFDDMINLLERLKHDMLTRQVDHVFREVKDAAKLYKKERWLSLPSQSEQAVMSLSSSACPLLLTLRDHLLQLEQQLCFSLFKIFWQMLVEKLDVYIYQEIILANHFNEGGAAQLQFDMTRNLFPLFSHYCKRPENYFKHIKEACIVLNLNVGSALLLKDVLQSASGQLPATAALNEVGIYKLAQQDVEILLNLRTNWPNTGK
Chain of UniProt Q9P2N5 (Q9P2N5 whole entry): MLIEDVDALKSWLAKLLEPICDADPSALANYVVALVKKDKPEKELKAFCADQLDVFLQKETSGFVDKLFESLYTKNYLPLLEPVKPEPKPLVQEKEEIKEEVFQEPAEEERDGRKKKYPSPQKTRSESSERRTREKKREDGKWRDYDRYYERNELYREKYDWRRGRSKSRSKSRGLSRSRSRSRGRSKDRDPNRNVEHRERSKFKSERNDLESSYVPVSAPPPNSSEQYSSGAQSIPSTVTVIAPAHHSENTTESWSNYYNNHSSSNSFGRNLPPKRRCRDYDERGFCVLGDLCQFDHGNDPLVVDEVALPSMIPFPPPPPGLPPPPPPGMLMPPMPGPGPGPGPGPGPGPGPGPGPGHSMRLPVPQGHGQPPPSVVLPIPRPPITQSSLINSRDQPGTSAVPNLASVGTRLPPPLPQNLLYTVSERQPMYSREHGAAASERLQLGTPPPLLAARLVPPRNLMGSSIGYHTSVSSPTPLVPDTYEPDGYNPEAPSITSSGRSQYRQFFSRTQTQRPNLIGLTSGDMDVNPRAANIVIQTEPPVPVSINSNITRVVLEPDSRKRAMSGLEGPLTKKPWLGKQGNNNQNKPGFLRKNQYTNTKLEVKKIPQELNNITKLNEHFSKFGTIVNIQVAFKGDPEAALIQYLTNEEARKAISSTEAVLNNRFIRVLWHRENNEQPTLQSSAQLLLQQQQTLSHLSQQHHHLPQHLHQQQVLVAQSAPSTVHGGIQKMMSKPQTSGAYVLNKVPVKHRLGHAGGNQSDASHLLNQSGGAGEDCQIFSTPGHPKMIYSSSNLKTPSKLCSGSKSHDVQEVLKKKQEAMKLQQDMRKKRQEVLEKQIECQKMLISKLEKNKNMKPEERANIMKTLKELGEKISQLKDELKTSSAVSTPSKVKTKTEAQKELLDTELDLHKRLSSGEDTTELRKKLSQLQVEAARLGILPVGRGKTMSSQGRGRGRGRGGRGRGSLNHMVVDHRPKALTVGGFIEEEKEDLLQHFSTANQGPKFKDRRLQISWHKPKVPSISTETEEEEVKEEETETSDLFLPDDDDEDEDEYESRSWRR
Chain of UniProt Q15437 (Q15437 whole entry): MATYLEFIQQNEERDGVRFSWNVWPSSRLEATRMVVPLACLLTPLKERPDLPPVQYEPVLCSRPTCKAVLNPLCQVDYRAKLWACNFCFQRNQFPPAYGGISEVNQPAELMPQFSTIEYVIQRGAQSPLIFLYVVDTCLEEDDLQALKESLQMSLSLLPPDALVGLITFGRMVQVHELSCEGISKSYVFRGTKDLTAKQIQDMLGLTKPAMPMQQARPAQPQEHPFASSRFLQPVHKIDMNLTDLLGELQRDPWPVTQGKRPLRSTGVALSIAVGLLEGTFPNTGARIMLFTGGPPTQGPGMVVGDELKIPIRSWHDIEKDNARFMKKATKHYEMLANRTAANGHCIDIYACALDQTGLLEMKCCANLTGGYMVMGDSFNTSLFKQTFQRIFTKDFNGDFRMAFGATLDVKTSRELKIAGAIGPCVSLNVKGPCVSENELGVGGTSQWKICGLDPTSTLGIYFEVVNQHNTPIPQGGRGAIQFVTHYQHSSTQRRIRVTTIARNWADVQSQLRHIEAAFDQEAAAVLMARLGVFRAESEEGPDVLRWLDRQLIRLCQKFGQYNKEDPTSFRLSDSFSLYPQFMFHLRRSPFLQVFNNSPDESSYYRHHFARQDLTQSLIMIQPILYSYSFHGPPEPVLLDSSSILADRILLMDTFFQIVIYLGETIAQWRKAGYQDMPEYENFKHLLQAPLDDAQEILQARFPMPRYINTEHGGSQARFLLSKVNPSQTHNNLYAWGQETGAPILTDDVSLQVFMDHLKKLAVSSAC
Chain of UniProt Q15796 (Q15796 whole entry): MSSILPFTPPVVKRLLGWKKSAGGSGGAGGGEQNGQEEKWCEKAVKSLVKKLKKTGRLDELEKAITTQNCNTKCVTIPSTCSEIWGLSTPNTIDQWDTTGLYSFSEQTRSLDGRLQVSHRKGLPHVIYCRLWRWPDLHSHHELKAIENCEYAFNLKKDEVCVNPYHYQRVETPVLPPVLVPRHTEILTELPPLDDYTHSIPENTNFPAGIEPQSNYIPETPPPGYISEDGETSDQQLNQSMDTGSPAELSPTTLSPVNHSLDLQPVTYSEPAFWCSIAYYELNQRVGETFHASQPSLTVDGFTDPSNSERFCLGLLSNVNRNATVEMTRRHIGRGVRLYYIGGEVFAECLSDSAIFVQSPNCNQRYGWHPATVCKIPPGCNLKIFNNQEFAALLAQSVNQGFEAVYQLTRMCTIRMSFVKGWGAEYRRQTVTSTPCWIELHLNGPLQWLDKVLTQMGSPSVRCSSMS
Chain of UniProt P29590 (P29590 whole entry): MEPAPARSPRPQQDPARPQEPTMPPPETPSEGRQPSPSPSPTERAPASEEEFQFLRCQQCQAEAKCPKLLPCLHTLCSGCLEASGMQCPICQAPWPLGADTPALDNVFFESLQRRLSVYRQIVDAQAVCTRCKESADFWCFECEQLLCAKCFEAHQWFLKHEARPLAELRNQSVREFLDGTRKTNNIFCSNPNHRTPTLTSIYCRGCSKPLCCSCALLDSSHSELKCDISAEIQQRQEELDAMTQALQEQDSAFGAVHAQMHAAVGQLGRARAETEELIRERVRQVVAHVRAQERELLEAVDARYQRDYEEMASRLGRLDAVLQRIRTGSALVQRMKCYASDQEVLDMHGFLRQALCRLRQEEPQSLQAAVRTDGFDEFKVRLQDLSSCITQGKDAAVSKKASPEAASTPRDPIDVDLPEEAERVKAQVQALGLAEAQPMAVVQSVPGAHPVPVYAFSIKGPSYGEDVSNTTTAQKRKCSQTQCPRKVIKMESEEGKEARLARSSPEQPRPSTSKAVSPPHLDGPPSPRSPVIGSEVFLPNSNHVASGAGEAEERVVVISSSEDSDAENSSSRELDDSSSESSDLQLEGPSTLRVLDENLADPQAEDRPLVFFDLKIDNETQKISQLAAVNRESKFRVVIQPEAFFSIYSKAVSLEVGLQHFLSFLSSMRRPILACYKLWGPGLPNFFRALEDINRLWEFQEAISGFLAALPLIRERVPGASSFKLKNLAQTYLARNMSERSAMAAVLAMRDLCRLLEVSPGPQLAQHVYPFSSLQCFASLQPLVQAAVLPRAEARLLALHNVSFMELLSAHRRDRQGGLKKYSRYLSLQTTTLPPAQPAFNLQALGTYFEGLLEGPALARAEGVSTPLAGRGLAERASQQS
Chain of UniProt Q15024 (Q15024 whole entry): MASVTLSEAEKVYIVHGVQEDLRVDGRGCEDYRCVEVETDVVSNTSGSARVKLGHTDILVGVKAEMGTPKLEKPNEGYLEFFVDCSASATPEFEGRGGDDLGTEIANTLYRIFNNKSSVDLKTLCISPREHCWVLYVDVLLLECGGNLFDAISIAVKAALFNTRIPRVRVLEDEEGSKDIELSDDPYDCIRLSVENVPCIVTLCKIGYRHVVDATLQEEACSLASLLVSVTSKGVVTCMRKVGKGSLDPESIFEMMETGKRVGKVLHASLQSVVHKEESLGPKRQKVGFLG

Target	thermal stability z-score (potassium arsenate)	thermal stability z-score (lipoamide; [1])	thermal stability z-score (lipoamide; arsenate co-treatment: none)
TRIM28 (UniProt Q13263)	-1.49	-0.138	0.0166
PML (UniProt P29590)	5.01	1.95	0.537
TRAF2 (UniProt Q12933)	-4.2	-0.41	-0.458
GIGYF2 (UniProt Q6Y7W6)	0.0976	-0.406	-0.109
RPS27A (UniProt P62979)	-1.18	0.106	-0.431
BRAP (UniProt Q7Z569)	0.485	-0.31	0.051
TTF2 (UniProt Q9UNY4)	-0.0154	-1.12	0.461
HSPBP1 (UniProt Q9NZL4)	0.872	-0.134	-0.197
SEC23B (UniProt Q15437)	0.645	1.19	0.766
BCAS3 (UniProt Q9H6U6)	-0.0972	-0.0897	0.561
OSGEPL1 (UniProt Q9H4B0)	-0.494	0.0734	-0.263
RPA3 (UniProt P35244)	0.872	0.313	0.624
PGK1 (UniProt P00558)	-0.469	0.239	0.256
RINT1 (UniProt Q6NUQ1)	0.354	-0.699	-0.111
R3HDM1 (UniProt Q15032)	0.0316	0.0761	0.111
MORF4L1 (UniProt Q9UBU8)	0.343	-0.486	0.0693
SEC22A (UniProt Q96IW7)	0.684	0.0383	-0.0317
RBM27 (UniProt Q9P2N5)	-0.145	-0.453	-0.373
ZBTB7A (UniProt O95365)	-1.13	0.428	-0.495
SPAG7 (UniProt O75391)	-0.214	0.493	0.212
PRKAR1B (UniProt P31321)	1.31	0.568	0.264
PEX3 (UniProt P56589)	-0.285	-0.415	-0.151
UBE2H (UniProt P62256)	0.295	0.213	-0.108
CDK5RAP2 (UniProt Q96SN8)	-0.112	-0.149	-0.131

Target	thermal stability z-score (potassium arsenate)	thermal stability z-score (lipoamide; [1])	thermal stability z-score (lipoamide; arsenate co-treatment: none)
MRPS24 (UniProt Q96EL2)	-0.497	-0.239	-0.0199
NASP (UniProt P49321)	0.578	-0.412	0.0851
PPIP5K1 (UniProt Q6PFW1)	0.125	-0.0717	0.0968
ARHGEF18 (UniProt Q6ZSZ5)	-0.0508	-0.0633	-0.00829
THG1L (UniProt Q9NWX6)	0.463	0.578	0.85
TBC1D17 (UniProt Q9HA65)	-0.0293	-0.114	-0.107
XRCC5 (UniProt P13010)	-0.403	-0.555	0.584
NCKAP5L (UniProt Q9HCH0)	0.264	-0.000592	0.244
STOML2 (UniProt Q9UJZ1)	-0.147	-0.324	0.0393
ARL6IP4 (UniProt Q66PJ3)	0.572	0.727	-0.0769
RTKN (UniProt Q9BST9)	-0.395	-0.183	-0.084
ARHGAP1 (UniProt Q07960)	-0.115	-1.02	-0.692
CASP3 (UniProt P42574)	-0.737	0.382	-0.0479
ACSL3 (UniProt O95573)	-0.39	-0.87	-0.498
EIF5 (UniProt P55010)	-1.08	0.0938	0.375
TMPIT|TMEM120A	-0.269	0.15	0.398
YRDC (UniProt Q86U90)	0.341	0.45	0.0491
USP48 (UniProt Q86UV5)	-0.669	-0.179	-0.137
ENO3 (UniProt P13929)	-0.432	0.308	-0.4
TOPBP1 (UniProt Q92547)	-0.623	0.0371	0.0228
KLF4 (UniProt O43474)	-1.07	-0.157	-0.548
SUPT4H1 (UniProt P63272)	-0.164	-0.0276	-0.173
RPS17 (UniProt P08708)	-0.614	0.31	-0.0463
SDHA (UniProt P31040)	-1.17	-0.493	-0.532

Target	thermal stability z-score (potassium arsenate)	thermal stability z-score (lipoamide; [1])	thermal stability z-score (lipoamide; arsenate co-treatment: none)
CHRAC1 (UniProt Q9NRG0)	-0.28	-0.123	0.285
QTRTD1 (UniProt Q9H974)	-0.765	0.678	-0.447
YIPF3 (UniProt Q9GZM5)	-0.0851	-0.157	0.0301
CCDC115 (UniProt Q96NT0)	-0.392	0.112	0.611
COMMD3 (UniProt Q9UBI1)	-1.12	-0.911	-0.0897
PUS1 (UniProt Q9Y606)	0.257	-0.761	-0.18
RIPK1 (UniProt Q13546)	0.39	-0.595	-1.03
CENPF (UniProt P49454)	1.73	0.439	-0.0287
NEDD4 (UniProt P46934)	-0.128	0.296	0.196
POLR3C (UniProt Q9BUI4)	-0.411	0.213	0.0462
UBLCP1 (UniProt Q8WVY7)	0.8	0.309	-0.101
FBXO22 (UniProt Q8NEZ5)	-0.412	0.0761	-0.0297
LIAS (UniProt O43766)	-2.31	1.93	3.09
EMC3 (UniProt Q9P0I2)	-0.133	-0.0707	-0.245
BCL7C (UniProt Q8WUZ0)	0.0252	0.0654	0.0122
WEE1 (UniProt P30291)	0.00265	-0.142	0.206
TCF3 (UniProt P15923)	-0.203	-0.098	-0.0941
PPP3CB (UniProt P16298)	-0.199	-0.386	-2.04
EXOSC7 (UniProt Q15024)	-1.11	0.482	0.0621
PPP1R18 (UniProt Q6NYC8)	0.444	-0.336	0.0646
SMAD2 (UniProt Q15796)	-1.26	-0.492	0.118
TMED10 (UniProt P49755)	0.275	-1.53	-1.03
TMEM2 (UniProt Q9UHN6)	0.466	-0.117	-0.196
